Experimental data published in US20240158370A1, “CK1 alpha AND DUAL CK1 alpha / GSPT1 DEGRADING COMPOUNDS” (Innovo Therapeutics, Inc., priority 2022, published 2024).

Key:
[1] = molecular target: T1, CK1α (Homo sapiens, UniProt P48729+Q96SW2); assay: HiBiT degradation assay, CK1α, Procedure A; format: cell-based; settings: six hours incubation
T1 construct: CSNK1A1-HiBit KI HEK293(LgBit) Cells; host or cells: HEK293(LgBit) knock-in cells
Protocol: (§1) Compounds were spotted onto Cornin 384-Well, Cell Culture-Treated, Flat-Bottom, Low Flange Microplate (Fisher Scientific, Catalog #07-201-013) using a Tecan D300e digital dispenser. Ten-point dose response curves spanning from 10 μM to 0.005 μM with a 0.1% DMSO tolerance were used.
(§2) Cells were dissociated from tissue 182 cm^2 Tissue Culture Flask (CellTreat Catalog #229351) by washing the cells with PBS (Fisher Scientific Catalog #BP3994) followed by dissociation with Trypsin-EDTA (0.25%) (Thermo Scientific Catalog #25200056). Trysin was neutralized and cells were resuspended with DMEM+10% FBS. Cells were centrifuged for 5 minutes at 1200 RPMs. Cell culture media was aspirated off and cells were resuspended with DMEM+10% FBS. Cell density was determined using a Denovix CellDrop BF cell counter. Cell density was adjusted to 1×10^6 cells/ml. 40 μl of cells was added to compound treated tissue culture plates and incubated for six hours at 37° C. After six hours, cell culture plates were removed from tissue culture incubator and cooled to room temperature. 40 μl of Nano-GloHiBiT Lytic Detection Reagent (Promega, Catalog #N3040) was added to each well. Plates were placed on an orbital shaker (600 rpm) for 20 minutes. Luminescence was measured using an Envsion plate reader (Perkin Elmer). DC50 curves and Ymin were generated using a 4-parameter curve fit with GraphPad Prism software (Prism Corporation).
(§3) Results from the HiBiT assay (DC50 (nM) and Ymin (% remaining)) are shown below. All CK1α data was generated according to Procedure A. GSPT1 data for Examples 1-600, 603-620 and 703-705 was generated according to Procedure A. GSPT1 data for Examples 601, 621-702 and 706-735 was generated according to Procedure B.

[2] = molecular target: GSPT1 (Homo sapiens, UniProt P15170+Q96SW2); assay: HiBiT degradation assay, GSPT1, Procedure A; format: cell-based; parameters: HiBit-GSPT1 KI HEK293(LgBit) Cells; host or cells: HEK293(LgBit) knock-in cells; settings: six hours incubation
GSPT1, sequence (P15170 whole entry): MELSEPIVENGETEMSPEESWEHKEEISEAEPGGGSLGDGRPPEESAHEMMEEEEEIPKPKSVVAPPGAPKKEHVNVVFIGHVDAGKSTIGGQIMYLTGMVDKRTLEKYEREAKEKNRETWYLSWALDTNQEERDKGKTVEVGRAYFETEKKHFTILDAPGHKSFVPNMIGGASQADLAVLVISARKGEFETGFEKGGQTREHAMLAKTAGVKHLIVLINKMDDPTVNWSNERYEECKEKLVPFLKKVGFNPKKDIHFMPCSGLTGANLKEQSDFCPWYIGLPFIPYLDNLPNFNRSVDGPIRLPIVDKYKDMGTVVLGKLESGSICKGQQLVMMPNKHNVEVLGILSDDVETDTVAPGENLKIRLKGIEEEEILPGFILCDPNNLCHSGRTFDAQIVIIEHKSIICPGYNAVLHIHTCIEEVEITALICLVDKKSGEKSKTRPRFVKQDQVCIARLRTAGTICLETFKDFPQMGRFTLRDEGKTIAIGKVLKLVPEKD
GSPT1, sequence (Q96SW2 whole entry): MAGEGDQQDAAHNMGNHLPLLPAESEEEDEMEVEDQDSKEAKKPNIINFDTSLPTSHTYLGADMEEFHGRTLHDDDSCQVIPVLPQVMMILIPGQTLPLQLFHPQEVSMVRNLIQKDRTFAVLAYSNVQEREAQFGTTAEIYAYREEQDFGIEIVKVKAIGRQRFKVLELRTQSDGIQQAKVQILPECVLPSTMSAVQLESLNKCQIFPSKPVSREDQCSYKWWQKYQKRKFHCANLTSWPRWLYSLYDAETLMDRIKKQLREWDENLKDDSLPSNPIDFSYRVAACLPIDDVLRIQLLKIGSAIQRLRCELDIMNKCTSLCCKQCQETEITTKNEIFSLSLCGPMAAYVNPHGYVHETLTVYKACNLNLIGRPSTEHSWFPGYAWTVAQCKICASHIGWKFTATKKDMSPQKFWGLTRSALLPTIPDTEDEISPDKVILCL
GSPT1, sequence (Q16531 whole entry partner): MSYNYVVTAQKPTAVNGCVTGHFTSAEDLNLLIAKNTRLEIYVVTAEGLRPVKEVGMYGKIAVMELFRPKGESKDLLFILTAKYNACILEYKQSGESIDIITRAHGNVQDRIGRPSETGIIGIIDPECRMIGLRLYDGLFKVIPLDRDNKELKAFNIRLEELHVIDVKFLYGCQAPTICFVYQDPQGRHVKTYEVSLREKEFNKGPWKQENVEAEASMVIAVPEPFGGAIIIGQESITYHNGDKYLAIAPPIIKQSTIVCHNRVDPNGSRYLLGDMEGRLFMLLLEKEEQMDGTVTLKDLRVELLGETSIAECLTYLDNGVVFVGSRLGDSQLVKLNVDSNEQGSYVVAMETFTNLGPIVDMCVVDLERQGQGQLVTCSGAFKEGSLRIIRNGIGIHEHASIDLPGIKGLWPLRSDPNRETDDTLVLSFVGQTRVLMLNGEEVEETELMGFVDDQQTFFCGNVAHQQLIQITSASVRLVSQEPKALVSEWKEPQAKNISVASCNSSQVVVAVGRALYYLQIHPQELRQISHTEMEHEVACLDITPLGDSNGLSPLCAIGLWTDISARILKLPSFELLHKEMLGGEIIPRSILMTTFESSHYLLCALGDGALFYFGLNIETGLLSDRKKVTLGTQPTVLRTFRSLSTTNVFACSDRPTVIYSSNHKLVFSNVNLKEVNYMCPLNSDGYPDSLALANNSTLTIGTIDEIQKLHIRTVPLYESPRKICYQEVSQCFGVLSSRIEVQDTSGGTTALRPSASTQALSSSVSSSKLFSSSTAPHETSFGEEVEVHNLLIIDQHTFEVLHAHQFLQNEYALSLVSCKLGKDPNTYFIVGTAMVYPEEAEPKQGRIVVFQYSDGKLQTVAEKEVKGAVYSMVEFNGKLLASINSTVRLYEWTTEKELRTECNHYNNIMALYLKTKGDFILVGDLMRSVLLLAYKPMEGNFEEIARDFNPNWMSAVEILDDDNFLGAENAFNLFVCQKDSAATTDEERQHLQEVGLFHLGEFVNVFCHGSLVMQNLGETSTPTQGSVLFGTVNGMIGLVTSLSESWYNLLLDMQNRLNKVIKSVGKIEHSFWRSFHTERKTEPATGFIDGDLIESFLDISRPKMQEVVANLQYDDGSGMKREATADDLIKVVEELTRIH
Protocol: as §1, §2, §3

T1 sequence (P48729 whole entry): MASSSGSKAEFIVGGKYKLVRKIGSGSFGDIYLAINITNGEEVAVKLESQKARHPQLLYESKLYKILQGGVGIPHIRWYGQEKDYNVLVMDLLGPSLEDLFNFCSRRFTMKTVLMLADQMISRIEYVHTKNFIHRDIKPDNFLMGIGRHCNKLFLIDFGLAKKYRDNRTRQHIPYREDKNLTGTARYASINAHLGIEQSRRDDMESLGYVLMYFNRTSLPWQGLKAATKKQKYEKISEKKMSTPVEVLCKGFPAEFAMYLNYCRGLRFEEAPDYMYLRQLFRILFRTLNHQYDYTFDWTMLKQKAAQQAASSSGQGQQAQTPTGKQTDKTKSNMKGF
T1 sequence (Q96SW2 whole entry): as the sequence (Q96SW2 whole entry) above
T1 sequence (Q16531 whole entry partner): as the sequence (Q16531 whole entry partner) above

Row | Structure (SMILES) | CK1α Ymin [1] | DC50 [1] [nM] | DC50 [2] [nM] | GSPT1 Ymin [2]
1 | COc1cccc(-c2c(-c3ccc4c(c3)CN(C3CCC(=O)NC3=O)C4=O)cnn2C)c1 (stereo not shown) [Example 69] | E (E = >25-75% remaining) | < 25 | ≥ 25 | F (F = >75-100% remaining)
2 | COc1ccc(-c2c(-c3ccc4c(c3)CN(C3CCC(=O)NC3=O)C4=O)cnn2C)cc1 (stereo not shown) [Example 70] | C (C = 0-10% remaining) | < 25 | ≥ 25 | F (F = >75-100% remaining)
3 | Cn1ncc(-c2ccc3c(c2)CN(C2CCC(=O)NC2=O)C3=O)c1-c1ccccc1C(F)(F)F (stereo not shown) [Example 71] | F (F = >75-100% remaining) | < 25 | ≥ 25 | F (F = >75-100% remaining)
4 | Cn1ncc(-c2ccc3c(c2)CN(C2CCC(=O)NC2=O)C3=O)c1-c1cccc(F)c1F (stereo not shown) [Example 73] | E (E = >25-75% remaining) | < 25 | ≥ 25 | F (F = >75-100% remaining)
5 | Cc1ccccc1-c1c(-c2ccc3c(c2)CN(C2CCC(=O)NC2=O)C3=O)cnn1C (stereo not shown) [Example 74] | E (E = >25-75% remaining) | < 25 | ≥ 25 | F (F = >75-100% remaining)
6 | Cn1ncc(-c2ccc3c(c2)CN(C2CCC(=O)NC2=O)C3=O)c1-c1ccc(Cl)c(Cl)c1 (stereo not shown) [Example 75] | E (E = >25-75% remaining) | ≥ 25 | ≥ 25 | F (F = >75-100% remaining)
7 | Cc1cccc(-c2c(-c3ccc4c(c3)CN(C3CCC(=O)NC3=O)C4=O)cnn2C)c1 (stereo not shown) [Example 76] | D (D = >10- 25% remaining) | < 25 | ≥ 25 | F (F = >75-100% remaining)
8 | Cn1ncc(-c2ccc3c(c2)CN(C2CCC(=O)NC2=O)C3=O)c1-c1cc(F)ccc1F (stereo not shown) [Example 77] | E (E = >25-75% remaining) | < 25 | ≥ 25 | F (F = >75-100% remaining)
9 | COc1cc(-c2c(-c3ccc4c(c3)CN(C3CCC(=O)NC3=O)C4=O)cnn2C)ccc1C (stereo not shown) [Example 78] | E (E = >25-75% remaining) | < 25 | ≥ 25 | F (F = >75-100% remaining)
10 | Cn1ncc(-c2ccc3c(c2)CN(C2CCC(=O)NC2=O)C3=O)c1-c1ccc(Cl)cc1F (stereo not shown) [Example 79] | E (E = >25-75% remaining) | < 25 | ≥ 25 | F (F = >75-100% remaining)
11 | Cc1ccc(-c2c(-c3ccc4c(c3)CN(C3CCC(=O)NC3=O)C4=O)cnn2C)cc1Cl (stereo not shown) [Example 80] | E (E = >25-75% remaining) | < 25 | ≥ 25 | F (F = >75-100% remaining)
12 | Cn1ncc(-c2ccc3c(c2)CN(C2CCC(=O)NC2=O)C3=O)c1-c1ccc(OCc2ccccc2)c(Cl)c1 (stereo not shown) [Example 81] | E (E = >25-75% remaining) | ≥ 25 | ≥ 25 | F (F = >75-100% remaining)
13 | COc1ccc(Cl)c(-c2c(-c3ccc4c(c3)CN(C3CCC(=O)NC3=O)C4=O)cnn2C)c1 (stereo not shown) [Example 82] | E (E = >25-75% remaining) | < 25 | ≥ 25 | F (F = >75-100% remaining)
14 | Cc1ccc(-c2c(-c3ccc4c(c3)CN(C3CCC(=O)NC3=O)C4=O)cnn2C)c(C)c1 (stereo not shown) [Example 83] | E (E = >25-75% remaining) | < 25 | ≥ 25 | F (F = >75-100% remaining)
15 | CC(C)c1ccc(-c2c(-c3ccc4c(c3)CN(C3CCC(=O)NC3=O)C4=O)cnn2C)cc1 (stereo not shown) [Example 84] | E (E = >25-75% remaining) | < 25 | ≥ 25 | F (F = >75-100% remaining)

The next lines start with the values.

Row | CK1α Ymin [1] | DC50 [1] [nM] | DC50 [2] [nM] | GSPT1 Ymin [2] | Structure (SMILES)
16 | E (E = >25-75% remaining) | < 25 | ≥ 25 | F (F = >75-100% remaining) | Cc1ccc(-c2c(-c3ccc4c(c3)CN(C3CCC(=O)NC3=O)C4=O)cnn2C)c(Cl)c1 (stereo not shown) [Example 85]
17 | E (E = >25-75% remaining) | < 25 | ≥ 25 | F (F = >75-100% remaining) | Cc1ccc(Cl)c(-c2c(-c3ccc4c(c3)CN(C3CCC(=O)NC3=O)C4=O)cnn2C)c1 (stereo not shown) [Example 86]
18 | E (E = >25-75% remaining) | < 25 | ≥ 25 | F (F = >75-100% remaining) | Cc1ccc(C)c(-c2c(-c3ccc4c(c3)CN(C3CCC(=O)NC3=O)C4=O)cnn2C)c1 (stereo not shown) [Example 87]
19 | E (E = >25-75% remaining) | < 25 | ≥ 25 | F (F = >75-100% remaining) | Cn1ncc(-c2ccc3c(c2)CN(C2CCC(=O)NC2=O)C3=O)c1-c1ccc(F)cc1Cl (stereo not shown) [Example 88]
20 | E (E = >25-75% remaining) | < 25 | ≥ 25 | F (F = >75-100% remaining) | Cc1ccc(F)c(-c2c(-c3ccc4c(c3)CN(C3CCC(=O)NC3=O)C4=O)cnn2C)c1 (stereo not shown) [Example 89]
21 | E (E = >25-75% remaining) | < 25 | ≥ 25 | F (F = >75-100% remaining) | Cn1ncc(-c2ccc3c(c2)CN(C2CCC(=O)NC2=O)C3=O)c1-c1ccc(Cl)c(F)c1 (stereo not shown) [Example 90]
22 | E (E = >25-75% remaining) | < 25 | ≥ 25 | E (E = >25-75% remaining) | Cc1cc(-c2c(-c3ccc4c(c3)CN(C3CCC(=O)NC3=O)C4=O)cnn2C)ccc1F (stereo not shown) [Example 91]
23 | E (E = >25-75% remaining) | ≥ 25 | ≥ 25 | F (F = >75-100% remaining) | CC(C)Cc1ccc(-c2c(-c3ccc4c(c3)CN(C3CCC(=O)NC3=O)C4=O)cnn2C)cc1 (stereo not shown) [Example 92]
24 | E (E = >25-75% remaining) | ≥ 25 | ≥ 25 | F (F = >75-100% remaining) | Cn1ncc(-c2ccc3c(c2)CN(C2CCC(=O)NC2=O)C3=O)c1-c1cc(Cl)ccc1F (stereo not shown) [Example 93]
25 | D (D = >10- 25% remaining) | < 25 | ≥ 25 | F (F = >75-100% remaining) | Cc1ccc(-c2c(-c3ccc4c(c3)CN(C3CCC(=O)NC3=O)C4=O)cnn2C)c(F)c1 (stereo not shown) [Example 94]
26 | D (D = >10- 25% remaining) | < 25 | ≥ 25 | F (F = >75-100% remaining) | Cn1ncc(-c2ccc3c(c2)CN(C2CCC(=O)NC2=O)C3=O)c1-c1ccsc1 (stereo not shown) [Example 95]
27 | E (E = >25-75% remaining) | ≥ 25 | ≥ 25 | F (F = >75-100% remaining) | COc1ccccc1-c1c(-c2ccc3c(c2)CN(C2CCC(=O)NC2=O)C3=O)cnn1C (stereo not shown) [Example 96]
28 | D (D = >10- 25% remaining) | < 25 | ≥ 25 | F (F = >75-100% remaining) | Cn1ncc(-c2ccc3c(c2)CN(C2CCC(=O)NC2=O)C3=O)c1-c1ccc2c(c1)CCO2 (stereo not shown) [Example 97]
29 | E (E = >25-75% remaining) | ≥ 25 | ≥ 25 | F (F = >75-100% remaining) | Cn1ncc(-c2ccc3c(c2)CN(C2CCC(=O)NC2=O)C3=O)c1-c1ccc(C(=O)NC2CCCC2)cc1 (stereo not shown) [Example 98]
30 | E (E = >25-75% remaining) | < 25 | ≥ 25 | F (F = >75-100% remaining) | Cc1cc(-c2c(-c3ccc4c(c3)CN(C3CCC(=O)NC3=O)C4=O)cnn2C)ccc1Cl (stereo not shown) [Example 99]
31 | E (E = >25-75% remaining) | ≥ 25 | ≥ 25 | F (F = >75-100% remaining) | Cn1ncc(-c2ccc3c(c2)CN(C2CCC(=O)NC2=O)C3=O)c1-c1ccc(NC(=O)c2ccccc2)cc1 (stereo not shown) [Example 100]
32 | E (E = >25-75% remaining) | < 25 | ≥ 25 | F (F = >75-100% remaining) | Cn1ncc(-c2ccc3c(c2)CN(C2CCC(=O)NC2=O)C3=O)c1-c1ccc(-c2ccc(C#N)cc2)cc1 (stereo not shown) [Example 101]
33 | E (E = >25-75% remaining) | ≥ 25 | ≥ 25 | F (F = >75-100% remaining) | Cn1ncc(-c2ccc3c(c2)CN(C2CCC(=O)NC2=O)C3=O)c1-c1ccc(C(=O)NCc2ccccc2)c(Cl)c1 (stereo not shown) [Example 102]
34 | D (D = >10- 25% remaining) | < 25 | ≥ 25 | F (F = >75-100% remaining) | Cn1ncc(-c2ccc3c(c2)CN(C2CCC(=O)NC2=O)C3=O)c1-c1ccc(-c2cccnc2)cc1 (stereo not shown) [Example 103]
